Measured values reported in patent US20060069132A1, “Azolecarboxamide herbicides” (priority 2004, published 2006).

Tests used:
[1] = test system: small flower umbrella sedge; experiment: Test B flooded paddy test; type: in vivo, Cyperus difformis; conditions: 1000 g ai/ha, visual rating, scale 0 to 100 (0 no effect, 100 complete control), 13 to 15 days
Method in brief: (§1)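 Treated at 2-leaf (paddy) or 1–4-leaf, 2–18 cm (postemergence); greenhouse 13–15 d; visual score vs control, 0 none to 100 complete control; dash = not tested.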

blackgrass = experiment: Test B postemergence herbicide test; type: in vivo, Alopecurus myosuroides; conditions: scale 0 (no effect) to 100 (complete control)
Method in brief: as §1

corn = experiment: Test B pre-/postemergence herbicide test; type: in vivo, Zea mays
Method in brief: (§2)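 Response was scored visually 13 to 15 days after treatment against untreated greenhouse controls, 0 meaning no effect and 100 complete control. Formulations (solvent mixture plus surfactant) went onto soil after planting, onto foliage of 1- to 4-leaf plants, and onto 2-leaf plants in a flooded paddy set including rice and barnyardgrass.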

lambsquarters = experiment: Test B pre-/postemergence herbicide test; type: in vivo, Chenopodium album
Method in brief: as §2

morningglory = experiment: Test B pre-/postemergence herbicide test; type: in vivo, Ipomoea coccinea
Method in brief: (§3)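 Herbicidal effect was judged by eye on a 0–100 scale after plants stood 13 to 15 days in the greenhouse following pre- or postemergence treatment with surfactant-containing formulations.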

cocklebur = experiment: Test B pre-/postemergence herbicide test; type: in vivo, Xanthium strumarium
Method in brief: as §3

barnyardgrass [2] = experiment: Test B flooded paddy test; type: in vivo, Echinochloa crus-galli; conditions: 1000 g ai/ha, visual rating, scale 0 to 100 (0 no effect, 100 complete control), 13 to 15 days
Method in brief: as §1

large crabgrass = experiment: Test B pre-/postemergence herbicide test; type: in vivo, Digitaria sanguinalis
Method in brief: as §2

giant foxtail = experiment: Test B pre-/postemergence herbicide test; type: in vivo, Setaria faberi
Method in brief: as §2

pigweed = experiment: Test B pre-/postemergence herbicide test; type: in vivo, Amaranthus retroflexus
Method in brief: as §2

ducksalad = experiment: Test B flooded paddy test; type: in vivo, Heteranthera limosa; conditions: 1000 g ai/ha, visual rating, scale 0 to 100 (0 no effect, 100 complete control), 13 to 15 days
Method in brief: as §1

Surinam grass = experiment: Test B pre-/postemergence herbicide test; type: in vivo, Urochloa decumbens
Method in brief: as §2

barnyardgrass [3] = experiment: Test B pre-/postemergence herbicide test; type: in vivo, Echinochloa crus-galli
Method in brief: as §3

wild oat = experiment: Test B postemergence herbicide test; type: in vivo, Avena fatua; conditions: scale 0 (no effect) to 100 (complete control)
Method in brief: (§4)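 Plants grow to 1- to 4-leaf stage (2–18 cm) for postemergence spraying, or to 2-leaf stage for the paddy test. Formulated compound is applied. Greenhouse holding lasts 13–15 days. Response is scored visually relative to controls, 0 no effect to 100 complete control; a dash means no result.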

wheat = experiment: Test B postemergence herbicide test; type: in vivo, Triticum aestivum; set-up: key to Wheat plant response rating: 0 = no effect, 100 = complete control; conditions: scale 0 (no effect) to 100 (complete control)
Method in brief: as §4

rice = experiment: Test B flooded paddy test; type: in vivo, Oryza sativa; conditions: 1000 g ai/ha, visual rating, scale 0 to 100 (0 no effect, 100 complete control), 13 to 15 days
Method in brief: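 Postemergence plants were sprayed with formulated test chemicals at 2 to 18 cm height (1- to 4-leaf stage); paddy species were grown to the 2-leaf stage. After 13 to 15 days in a greenhouse, injury was rated visually against untreated controls on a 0–100 scale (0 = no effect, 100 = complete control).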

[4] = Postemergence, 500 g ai/ha, visual rating after 13 to 15 days
[5] = postemergence, 125 g ai/ha, visual rating
[6] = Postemergence, 500 g ai/ha, visual rating after 13 to 15 days, scale 0 (no effect) to 100 (complete control)
[7] = Preemergence, 500 g ai/ha, scale 0 to 100
[8] = postemergence, 125 g ai/ha, visual rating, scale 0 (no effect) to 100 (complete control)
[9] = preemergence, 125 g ai/ha, 0 to 100 scale, 0 is no effect, 100 is complete control

CCNC(=O)c1cc(NC(=O)c2cc(C(C)(C)C)nn2CC)ccc1F [Compound 58]
60: Pigweed plant response rating (pigweed; [8]) | Surinam Grass plant response rating (Surinam grass; [7]) | Plant response rating, Barnyardgrass (barnyardgrass [3]; [6]) | Rice plant response rating (rice)
80: Sedge, Umbrella plant response rating [1] | Cocklebur plant response rating (cocklebur; [8]) | Barnyardgrass plant response rating (barnyardgrass [2]) | Ducksalad plant response rating (ducksalad)
10: Blackgrass plant response rating (blackgrass; [5]) | Corn plant response rating (corn; [8]) | Surinam Grass plant response rating (Surinam grass; [8])
20: Plant response rating, Corn (corn; [6]) | Plant response rating, Corn (corn; [9]) | Morningglory plant response rating (morningglory; [8]) | Crabgrass, Large plant response rating (large crabgrass; [8]) | Plant response rating, Foxtail, Giant (giant foxtail; [6]) | Foxtail, Giant plant response rating (giant foxtail; [8]) | Oat, Wild plant response rating (wild oat; [5]) | Plant response rating, Wheat (wheat; [4])
90: Plant response rating, Lambsquarters (lambsquarters; [6]) | Lambsquarters plant response rating (lambsquarters; [8]) | Plant response rating, Pigweed (pigweed; [6]) | Plant response rating, Barnyardgrass (barnyardgrass [3]; [9])
100: Lambsquarters plant response rating (lambsquarters; [7]) | Plant response rating, Lambsquarters (lambsquarters; [9]) | Plant response rating, Cocklebur (cocklebur; [6]) | Cocklebur plant response rating (cocklebur; [7]) | Crabgrass, Large plant response rating (large crabgrass; [7]) | Plant response rating, Crabgrass, Large (large crabgrass; [9]) | Foxtail, Giant plant response rating (giant foxtail; [7]) | Plant response rating, Foxtail, Giant (giant foxtail; [9]) | Pigweed plant response rating (pigweed; [7]) | Plant response rating, Pigweed (pigweed; [9]) | Barnyardgrass plant response rating (barnyardgrass [3]; [7])
0: Plant response rating, Cocklebur (cocklebur; [9]) | Wheat plant response rating (wheat; [5])
30: Plant response rating, Blackgrass (blackgrass; [4]) | Corn plant response rating (corn; [7]) | Plant response rating, Morningglory (morningglory; [6]) | Morningglory plant response rating (morningglory; [7]) | Plant response rating, Crabgrass, Large (large crabgrass; [6]) | Plant response rating, Surinam Grass (Surinam grass; [6]) | Plant response rating, Surinam Grass (Surinam grass; [9]) | Barnyardgrass plant response rating (barnyardgrass [3]; [8]) | Plant response rating, Oat, Wild (wild oat; [4])
